{
  "source": "patent US20250127176A1",
  "about": "(priority 2021, published 2025)",
  "key": {"[1]": {"tested_on": "late blight of potato (Phytophthora infestans)", "format": "in vivo"}, "late blight of potato": {"tested_on": "late blight of potato", "format": "in vivo, Phytophthora infestans", "conditions": "T4: foliar spray, 7 days interval; 0.8 ml/L"}, "[2]": {"conditions": "T3: foliar spray 30, 45, 60 and 75th day, dose 2.0 mL/Litre"}, "[3]": {"conditions": "T4: foliar spray 30, 45, 60 and 75th day, dose 2 g/lit"}, "[4]": {"conditions": "T5: foliar spray 45th day only, dose 2 g/lit"}},
  "note": "Where two headings read alike, the source gives them in different places.",
  "data": [
    {"compound": "C#CCOc1ccc(CCNC(=O)C(OCC#C)c2ccc(Cl)cc2)cc1OC", "note": "(centres unmarked) [Mandipropamid]", "values": [
      {"measurement": "Per cent Disease Index (PDI)", "setting": "[1]; [2]", "result": 12.5, "unit": "%"},
      {"measurement": "Per cent reduction over control", "setting": "[1]; [2]", "result": 86.7, "unit": "%"},
      {"measurement": "Per cent Disease Index (PDI)", "setting": "late blight of potato", "result": 14.11, "unit": "%"},
      {"measurement": "Per cent reduction over control", "setting": "late blight of potato", "result": 83.40, "unit": "%"}
    ]},
    {"compound": "Mancozeb", "values": [
      {"measurement": "Per cent Disease Index (PDI)", "setting": "[1]; [3]", "result": 15.6, "unit": "%"},
      {"measurement": "Per cent reduction over control", "setting": "[1]; [3]", "result": 83.4, "unit": "%"},
      {"measurement": "Per cent Disease Index (PDI)", "setting": "[1]; [4]", "result": 45.2, "unit": "%"},
      {"measurement": "Per cent reduction over control", "setting": "[1]; [4]", "result": 51.9, "unit": "%"}
    ]}
  ]
}
